In patent US4454126A, “Phosphoramide derivatives and medicines containing the same” (priority 1981, dated 1984):

Legend:
Jack bean urease = molecular target: T1, Jack bean urease (Canavalia ensiformis, UniProt P07374); test: Urease inhibition effects - Jack bean urease; type: biochemical, Jack beans; details: read-out: 50% Urease inhibition conc. I50
T1 construct: Urease extracted from Jack beans and then purified; from tissue; host or cells: Jack beans
Description: (§1) Urease extracted from Jack beans and then purified and urease produced by Proteus mirabilis were used. The molar concentration of the test compound that inhibited 50% of the urease present was determined by the method of Kobashi et al, Biochim. Biophys. Acta, 227, 429-441 (1971), and the method of Okuda et al, Saishin Igaku (The Latest Medical Science) 21(3), 622-627 (1966).

[1] = molecular target: T2, urease produced by Proteus mirabilis (Proteus mirabilis, UniProt P17086); test: Urease inhibition effects - Proteus mirabilis urease, intact cell; type: cell-based; details: read-out: 50% Urease inhibition conc. I50
T2 construct: intact Proteus mirabilis cells and cell-free preparation
Description: as §1

[2] = molecular target: T2, urease produced by Proteus mirabilis; test: Urease inhibition effects - Proteus mirabilis urease, cell free; type: biochemical; details: read-out: 50% Urease inhibition conc. I50
Description: as §1

[3] = Rate of migration into urine; details: rat, in vivo, po; 50 mg/kg perorally, S.D. rats, urine excreted for 24 hrs; read-out: Rate of migration into urine, Average ± S.E.
Description: 50 mg/kg of a test compound was administered perorally to S.D. rats weighing around 200 g. The urease-inhibition capacity of urine excreted for 24 hrs. thereafter was measured. The rate of migration into urine of each test compound was determined by the method of Kobashi et al, Yakugaku Zasshi 93(12), 1564-1572 (1973) and J. Biochim. 83, 287-293 (1973).

Proteus mirabilis = test: Inhibition of the formation of vesical calculi in rats infected with Proteus mirabilis; type: in vivo, Female S.D. rats; details: peroral, five days from four days after inoculation, none: 34.5 ± 2.6 mg
Source text: Female S.D. rats weighing about 200 g were inoculated with Proteus mirabilis in their bladders to cause infection. Four days after the inoculation peroral administration of a test compound was begun and the administration was continued for five days. The calculi formed in the bladder in each rat were weighed.

Acute toxicity = type: in vivo, S.D. rats; details: peroral; for LD50: rat, in vivo, po, in 0.5% carboxymethylcellulose
Source text: Acute toxicities of test compounds were examined by the peroral administration of the test compounds, suspended in 0.5% carboxymethylcellulose, to male and female S.D. rats (8 weeks old).

T1 sequence (P07374 whole entry, looked up): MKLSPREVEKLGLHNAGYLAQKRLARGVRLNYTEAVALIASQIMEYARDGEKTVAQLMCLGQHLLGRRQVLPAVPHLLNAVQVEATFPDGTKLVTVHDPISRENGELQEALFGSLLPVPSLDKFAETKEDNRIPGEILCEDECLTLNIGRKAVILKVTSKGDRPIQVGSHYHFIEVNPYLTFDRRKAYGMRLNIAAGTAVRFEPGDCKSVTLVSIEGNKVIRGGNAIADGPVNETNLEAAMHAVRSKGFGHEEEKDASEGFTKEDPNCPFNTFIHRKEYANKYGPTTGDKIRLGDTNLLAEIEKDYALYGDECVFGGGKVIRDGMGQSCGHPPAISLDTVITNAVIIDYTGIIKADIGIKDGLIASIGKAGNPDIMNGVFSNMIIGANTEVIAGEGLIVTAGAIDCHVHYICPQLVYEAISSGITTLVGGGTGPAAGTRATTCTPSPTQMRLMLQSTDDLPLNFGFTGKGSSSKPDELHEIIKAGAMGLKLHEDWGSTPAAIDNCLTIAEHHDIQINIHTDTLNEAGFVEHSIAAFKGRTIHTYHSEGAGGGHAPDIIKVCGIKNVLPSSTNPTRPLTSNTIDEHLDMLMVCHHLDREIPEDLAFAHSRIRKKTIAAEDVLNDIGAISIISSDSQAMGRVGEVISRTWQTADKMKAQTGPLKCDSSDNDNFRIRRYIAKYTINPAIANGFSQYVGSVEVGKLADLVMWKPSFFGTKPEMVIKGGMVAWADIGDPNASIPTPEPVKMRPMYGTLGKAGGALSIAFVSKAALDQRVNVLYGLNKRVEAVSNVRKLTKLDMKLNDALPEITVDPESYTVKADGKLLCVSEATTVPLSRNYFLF
T2 sequence (P17086 whole entry): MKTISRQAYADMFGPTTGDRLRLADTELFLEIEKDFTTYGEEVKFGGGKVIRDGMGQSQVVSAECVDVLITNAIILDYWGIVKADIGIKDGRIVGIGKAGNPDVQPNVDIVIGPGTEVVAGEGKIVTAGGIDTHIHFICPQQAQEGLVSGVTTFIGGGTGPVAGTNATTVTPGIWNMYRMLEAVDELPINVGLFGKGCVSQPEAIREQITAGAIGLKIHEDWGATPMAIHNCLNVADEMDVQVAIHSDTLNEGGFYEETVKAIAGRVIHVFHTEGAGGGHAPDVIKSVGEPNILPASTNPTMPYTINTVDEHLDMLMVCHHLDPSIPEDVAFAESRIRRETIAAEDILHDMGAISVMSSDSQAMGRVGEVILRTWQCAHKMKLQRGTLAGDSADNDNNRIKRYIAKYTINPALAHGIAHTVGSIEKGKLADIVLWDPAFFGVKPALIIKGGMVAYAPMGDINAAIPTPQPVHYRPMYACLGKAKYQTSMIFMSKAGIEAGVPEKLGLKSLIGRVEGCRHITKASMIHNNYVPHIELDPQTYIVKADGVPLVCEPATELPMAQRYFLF
T2 sequence (P17088 whole entry, further chain): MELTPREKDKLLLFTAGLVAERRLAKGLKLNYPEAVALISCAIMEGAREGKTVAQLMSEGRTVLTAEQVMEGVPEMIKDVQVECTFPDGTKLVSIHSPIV
T2 sequence (P17087 whole entry, further chain): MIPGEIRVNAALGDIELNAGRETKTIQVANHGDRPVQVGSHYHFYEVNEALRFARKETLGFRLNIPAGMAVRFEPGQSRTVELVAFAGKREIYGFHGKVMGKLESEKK

SMILES	IC50 (Jack bean urease) [nM]	IC50 [1] [nM]	IC50 [2] [nM]	dose excreted at 24 h [3] [%]	Weight of calculi (Average ± S.E.) (Proteus mirabilis; 12.5 mg/kg per day) [mg]	Weight of calculi (Average ± S.E.) (Proteus mirabilis; 50 mg/kg per day) [mg]	Acute toxicity, in words (Acute toxicity; S.D. rats)	LD50 (Acute toxicity; female S.D. rats (8 weeks old)) [mg/kg]	LD50 (Acute toxicity; male S.D. rats (8 weeks old)) [mg/kg]
CC(C)=CC(=O)NP(N)(N)=O [Compound A, N-(diaminophosphinyl)-3-methyl-2-butenamide]	630	18	16	29.6 ± 2.1	10.7 ± 3.9	10.9 ± 2.8	only a very low toxitity	> 4240	> 6000
CC(=CC(=O)NP(N)(N)=O)CCCC(C)C [Compound B, N-(diaminophosphinyl)-3,7-dimethyl-2-octenamide]	5200	15	16						
CC(C)CC(=O)NP(N)(N)=O [Compound C, N-(diaminophosphinyl)-3-methylbutanamide]	1600	68	61						
CC(C)CCCC(C)CC(=O)NP(N)(N)=O (stereo not shown) [Compound D, N-(diaminophosphinyl)-3,7-dimethyloctanamide]	870	14							
NP(N)(=O)NC(=O)c1ccccc1 [Control Compound, N-(diaminophosphinyl)benzamide, reference compound]	600	18	13	21 ± 2.7	22.5 ± 4.0				
